Reference: patent US6525001B1, “Substituted pyrimidine and pyridine herbicides” (Mid-American Commercialization Corporation, priority 1997, dated 2003)

Key:
Assay type in all cases: in vivo
[1] = system: fall panicum (Panicum dichotomiflorum); assay: Test C; set-up: key: 0 was no effect; 100 was complete control
[2] = system: johnsongrass (Sorghum halepense); assay: Test C
wild oat (Avena fatua) = assay: Test B pre-/postemergence; set-up: key: 0 is no effect; 10 is complete control
How it was run: (§1)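 Seeds were planted and sprayed preemergence, while plants at 2 to 18 cm (1- to 4-leaf stage) were sprayed postemergence at the same time, with test chemical in a non-phytotoxic solvent mixture containing surfactant. After twelve to sixteen days in a greenhouse, injury was rated visually against untreated controls on a 0–10 scale.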

[3] = system: blackgrass (Alopecurus myosuroides); assay: Test B pre-/postemergence; set-up: key: 0 is no effect; 10 is complete control
How it was run: as §1

[4] = system: common groundsel (Senecio vulgaris); assay: Test E pre-/postemergence/post directed
How it was run: (§2)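 Three application modes in greenhouse pots: preemergence soil spray, postemergence foliar spray at two to four leaves, and post-directed spray to soil and plant base. Ratings of 0–100 injury, assigned visually against untreated controls 13 to 21 days later.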

[5] = system: pitted morningglory (Ipomoea lacunosa); assay: Test E pre-/postemergence/post directed
How it was run: as §2

[6] = system: purple nutsedge (Cyperus rotundus); assay: Test C; set-up: key: 0 was no effect; 100 was complete control
[7] = system: common ragweed (Ambrosia elatior); assay: Test C
[8] = system: surinam grass (Brachiaria decumbens); assay: Test C
[9] = system: sandbur (Cenchrus echinatus); assay: Test E pre-/postemergence/post directed; set-up: key: 0 is no injury; 100 is complete control
How it was run: as §2

[10] = system: purple nutsedge (Cyperus rotundus); assay: Test E pre-/postemergence/post directed; set-up: key: 0 is no injury; 100 is complete control
How it was run: as §2

rice (Oryza sativa) = assay: Test B flood test
How it was run: (§3)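 Plants were grown to the 2-leaf stage before treatment with test chemical, then held in a greenhouse for twelve to sixteen days. Injury was visually rated against untreated controls on a 0–10 scale, where 0 is no effect and 10 is complete control.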

[11] = system: duck salad (Heteranthera limosa); assay: Test B flood test
How it was run: as §3

[12] = system: smallflower flatsedge (Cyperus difformis); assay: Test B flood test
How it was run: as §3

[13] = system: bamyardgrass (Echinochloa crus-galli); assay: Test B flood test
How it was run: as §3

[14] = Rate 62 g/ha, Postemergence (flood test)
[15] = Rate 125 g/ha, Postemergence, flood test
[16] = Rate 250 g/ha, Postemergence (flood test species)
[17] = Rate 500 g/ha, Postemergence (flood test species)

Cc1cnc(-c2ccc(C(F)(F)F)cc2)nc1Cn1ccc(C(F)(F)F)n1 [compound 9]
Plant response rating, Fall panicum ([1]; POSTEMERGENCE, Rate 35 g/ha): 5 | Plant response rating, Fall panicum ([1]; POSTEMERGENCE, Rate 70 g/ha): 20 | Plant response rating, Fall panicum ([1]; POSTEMERGENCE, Rate 140 g/ha): 30 | Plant response rating, Fall panicum ([1]; PREEMERGENCE, Rate 35 g/ha): 85 | Plant response rating, Fall panicum ([1]; PREEMERGENCE, Rate 70 g/ha): 90 | Plant response rating, Fall panicum ([1]; PREEMERGENCE, Rate 140 g/ha): 100 | Plant response rating, Johnsongrass ([2]; POSTEMERGENCE, Rate 35 g/ha): 10 | Plant response rating, Johnsongrass ([2]; POSTEMERGENCE, Rate 140 g/ha): 50 | Plant response rating, Johnsongrass ([2]; PREEMERGENCE, Rate 35 g/ha): 65 | Plant response rating, Johnsongrass ([2]; PREEMERGENCE, Rate 70 g/ha): 85 | Plant response rating, Johnsongrass ([2]; PREEMERGENCE, Rate 140 g/ha): 95 | Plant response rating, Wild oats (wild oat (Avena fatua); Rate 62 g/ha, Postemergence): 3 | Wild oats plant response rating (wild oat (Avena fatua); Rate 62 g/ha, Preemergence): 5 | Plant response rating, Wild oats (wild oat (Avena fatua); Rate 125 g/ha, Postemergence): 4 | Wild oats plant response rating (wild oat (Avena fatua); Rate 125 g/ha, Preemergence): 8 | Plant response rating, Wild oats (wild oat (Avena fatua); Rate 250 g/ha, Postemergence): 6 | Plant response rating, Wild oats (wild oat (Avena fatua); Rate 250 g/ha, Preemergence): 9 | Plant response rating, Wild oats (wild oat (Avena fatua); Rate 500 g/ha, Postemergence): 8 | Plant response rating, Wild oats (wild oat (Avena fatua); Rate 500 g/ha, Preemergence): 9 | Plant response rating, Blackgrass ([3]; Rate 62 g/ha, Postemergence): 3 | Blackgrass plant response rating ([3]; Rate 62 g/ha, Preemergence): 4 | Plant response rating, Blackgrass ([3]; Rate 125 g/ha, Postemergence): 8 | Blackgrass plant response rating ([3]; Rate 125 g/ha, Preemergence): 9 | Plant response rating, Blackgrass ([3]; Rate 250 g/ha, Postemergence): 8 | Plant response rating, Blackgrass ([3]; Rate 250 g/ha, Preemergence): 10 | Plant response rating, Blackgrass ([3]; Rate 500 g/ha, Postemergence): 9 | Plant response rating, Blackgrass ([3]; Rate 500 g/ha, Preemergence): 10 | Plant response rating, Com. groundsel ([4]; POSTEMERGENCE, Rate 125 g/ha): 25 | Plant response rating, Com. groundsel ([4]; POSTEMERGENCE, Rate 250 g/ha): 30 | Plant response rating, Com. groundsel ([4]; PREEMERGENCE, Rate 32 g/ha): 98 | Plant response rating, P. morninglory ([5]; POSTEMERGENCE, Rate 125 g/ha): 40 | Plant response rating, P. morninglory ([5]; POSTEMERGENCE, Rate 250 g/ha): 50 | Plant response rating, P. morninglory ([5]; PREEMERGENCE, Rate 32 g/ha): 45 | Plant response rating, P. morninglory ([5]; PREEMERGENCE, Rate 64 g/ha): 60 | Plant response rating, P. morninglory ([5]; PREEMERGENCE, Rate 125 g/ha): 75 | Plant response rating, Purple nutsedge ([6]; POSTEMERGENCE, Rate 35 g/ha): 5 | Plant response rating, Purple nutsedge ([6]; POSTEMERGENCE, Rate 70 g/ha): 5 | Plant response rating, Purple nutsedge ([6]; POSTEMERGENCE, Rate 140 g/ha): 5 | Plant response rating, Purple nutsedge ([6]; PREEMERGENCE, Rate 35 g/ha): 0 | Plant response rating, Purple nutsedge ([6]; PREEMERGENCE, Rate 70 g/ha): 0 | Plant response rating, Purple nutsedge ([6]; PREEMERGENCE, Rate 140 g/ha): 0 | Plant response rating, Common ragweed ([7]; POSTEMERGENCE, Rate 70 g/ha): 30 | Plant response rating, Common ragweed ([7]; POSTEMERGENCE, Rate 140 g/ha): 10 | Plant response rating, Common ragweed ([7]; PREEMERGENCE, Rate 35 g/ha): 80 | Plant response rating, Common ragweed ([7]; PREEMERGENCE, Rate 70 g/ha): 95 | Plant response rating, Common ragweed ([7]; PREEMERGENCE, Rate 140 g/ha): 75 | Plant response rating, Surinam grass ([8]; POSTEMERGENCE, Rate 35 g/ha): 5 | Plant response rating, Surinam grass ([8]; POSTEMERGENCE, Rate 70 g/ha): 5 | Plant response rating, Surinam grass ([8]; POSTEMERGENCE, Rate 140 g/ha): 20 | Plant response rating, Surinam grass ([8]; PREEMERGENCE, Rate 35 g/ha): 35 | Plant response rating, Surinam grass ([8]; PREEMERGENCE, Rate 70 g/ha): 80 | Plant response rating, Surinam grass ([8]; PREEMERGENCE, Rate 140 g/ha): 90 | Plant response rating, Sandbur ([9]; POSTEMERGENCE, Rate 125 g/ha): 0 | Plant response rating, Sandbur ([9]; POSTEMERGENCE, Rate 250 g/ha): 0 | Plant response rating, Sandbur ([9]; PREEMERGENCE, Rate 32 g/ha): 0 | Plant response rating, Sandbur ([9]; PREEMERGENCE, Rate 64 g/ha): 0 | Plant response rating, Purple nutsedge ([10]; POSTEMERGENCE, Rate 125 g/ha): 0 | Plant response rating, Purple nutsedge ([10]; POSTEMERGENCE, Rate 250 g/ha): 0 | Plant response rating, Purple nutsedge ([10]; PREEMERGENCE, Rate 32 g/ha): 0 | Plant response rating, Purple nutsedge ([10]; PREEMERGENCE, Rate 64 g/ha): 0 | Plant response rating, Purple nutsedge ([10]; PREEMERGENCE, Rate 125 g/ha): 0 | Plant response rating, Purple nutsedge ([10]; PREEMERGENCE, Rate 250 g/ha): 0 | Plant response rating, Rice (rice (Oryza sativa); [14]): 5 | Plant response rating, Rice (rice (Oryza sativa); [15]): 6 | Plant response rating, Rice (rice (Oryza sativa); [16]): 7 | Plant response rating, Rice (rice (Oryza sativa); [17]): 8 | Plant response rating, Ducksalad [11, 14]: 4 | Plant response rating, Ducksalad [11, 15]: 6 | Plant response rating, Ducksalad [11, 16]: 7 | Plant response rating, Ducksalad [11, 17]: 6 | Plant response rating, S. Flatsedge [12, 14]: 8 | Plant response rating, S. Flatsedge [12, 15]: 9 | Plant response rating, S. Flatsedge [12, 16]: 9 | Plant response rating, S. Flatsedge [12, 17]: 9 | Plant response rating, Barnyardgrass [13, 14]: 5 | Plant response rating, Barnyardgrass [13, 15]: 5 | Plant response rating, Barnyardgrass [13, 16]: 7 | Plant response rating, Barnyardgrass [13, 17]: 8
